#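 Cells were grown in 96-well plates and exposed to each compound for 48 hours at five concentrations; endpoints were interpolated linearly between bracketing concentrations, or set to the highest concentration if not reached. GI50 = concentration required for 50% inhibition of growth.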 Activity calls are given as the source filed them. No stated cut-off is given here; in the data, active = GI50 up to about 1.1 µM and inactive = higher.
# Tests used:
# Assay in all cases: NCI anticancer screen, dose series, 48 h
# TK-10 = tested on: TK-10
# DU-145 = tested on: DU-145
# PC-3 = tested on: PC-3
# SN12C = tested on: SN12C
# NCI-H23 = tested on: NCI-H23
# ACHN = tested on: ACHN
# HOP-62 = tested on: HOP-62
# SNB-19 = tested on: SNB-19
# UACC-62 = tested on: UACC-62
# SF-295 = tested on: SF-295
# SF-539 = tested on: SF-539
# MDA-MB-231 = tested on: MDA-MB-231
# 786-0 = tested on: 786-0
# IGROV-1 = tested on: IGROV-1
# BT-549 = tested on: BT-549
# U-251 = tested on: U-251
# HCT-116 = tested on: HCT-116
# SK-MEL-5 = tested on: SK-MEL-5
# CCRF-CEM = tested on: CCRF-CEM
# A549 = tested on: A549
# K562 = tested on: K562
# A498 = tested on: A498
# HOP-92 = tested on: HOP-92
# NCI-H460 = tested on: NCI-H460
# OVCAR-5 = tested on: OVCAR-5
# SF-268 = tested on: SF-268
# OVCAR-3 = tested on: OVCAR-3
# SK-OV-3 = tested on: SK-OV-3
# HCC 2998 = tested on: HCC 2998
# MDA-MB-435 = tested on: MDA-MB-435
# T47D = tested on: T47D
# SK-MEL-2 = tested on: SK-MEL-2
# HCT-15 = tested on: HCT-15
# Hs-578T = tested on: Hs-578T
# Malme-3M = tested on: Malme-3M
# KM12 = tested on: KM12
# RXF 393 = tested on: RXF 393
# HL-60 = tested on: HL-60
# NCI/ADR-RES = tested on: NCI/ADR-RES
# UO-31 = tested on: UO-31
# MDA-N = tested on: MDA-N
# SW-620 = tested on: SW-620
# M14 = tested on: M14
# MOLT-4 = tested on: MOLT-4
# EKVX = tested on: EKVX
# NCI-H226 = tested on: NCI-H226
# SK-MEL-28 = tested on: SK-MEL-28
# OVCAR-8 = tested on: OVCAR-8
# SR = tested on: SR
# HT-29 = tested on: HT-29
# MCF7 = tested on: MCF7
# CAKI-1 = tested on: CAKI-1
# OVCAR-4 = tested on: OVCAR-4
# RPMI-8226 = tested on: RPMI-8226
# UACC-257 = tested on: UACC-257
# SNB-75 = tested on: SNB-75
# COLO 205 = tested on: COLO 205
# NCI-H522 = tested on: NCI-H522
# LOX IMVI = tested on: LOX IMVI
smiles,measurement,setting,value
O=C(c1ccccc1)N1CCC(Nc2cccnc2)O1 (centres undefined),GI50,TK-10,> 100 µM (inactive)
same,GI50,DU-145,> 100 µM (inactive)
same,GI50,PC-3,> 100 µM (inactive)
same,GI50,SN12C,> 100 µM (inactive)
same,GI50,NCI-H23,> 100 µM (inactive)
same,GI50,ACHN,> 100 µM (inactive)
same,GI50,HOP-62,> 100 µM (inactive)
same,GI50,SNB-19,> 100 µM (inactive)
same,GI50,UACC-62,> 100 µM (inactive)
same,GI50,SF-295,> 100 µM (inactive)
same,GI50,SF-539,> 100 µM (inactive)
same,GI50,MDA-MB-231,> 100 µM (inactive)
same,GI50,786-0,> 100 µM (inactive)
same,GI50,IGROV-1,> 100 µM (inactive)
same,GI50,BT-549,> 100 µM (inactive)
same,GI50,U-251,> 100 µM (inactive)
same,GI50,HCT-116,> 100 µM (inactive)
same,GI50,SK-MEL-5,> 100 µM (inactive)
same,GI50,CCRF-CEM,> 100 µM (inactive)
same,GI50,A549,> 100 µM (inactive)
same,GI50,K562,> 100 µM (inactive)
same,GI50,A498,> 100 µM (inactive)
same,GI50,HOP-92,> 100 µM (inactive)
same,GI50,NCI-H460,> 100 µM (inactive)
same,GI50,OVCAR-5,> 100 µM (inactive)
same,GI50,SF-268,> 100 µM (inactive)
same,GI50,OVCAR-3,> 100 µM (inactive)
same,GI50,SK-OV-3,> 100 µM (inactive)
same,GI50,HCC 2998,50.8 µM (inactive)
same,GI50,MDA-MB-435,> 100 µM (inactive)
same,GI50,T47D,92.9 µM (inactive)
same,GI50,SK-MEL-2,> 100 µM (inactive)
same,GI50,HCT-15,> 100 µM
same,GI50,Hs-578T,7.64 µM (inactive)
same,GI50,Malme-3M,60.3 µM (inactive)
same,GI50,KM12,> 100 µM (inactive)
same,GI50,RXF 393,> 100 µM (inactive)
same,GI50,HL-60,> 100 µM (inactive)
same,GI50,NCI/ADR-RES,> 100 µM (inactive)
same,GI50,UO-31,> 100 µM (inactive)
same,GI50,MDA-N,> 100 µM (inactive)
same,GI50,SW-620,> 100 µM (inactive)
same,GI50,M14,> 100 µM (inactive)
same,GI50,MOLT-4,> 100 µM (inactive)
same,GI50,EKVX,> 100 µM (inactive)
same,GI50,NCI-H226,> 100 µM (inactive)
same,GI50,SK-MEL-28,> 100 µM (inactive)
same,GI50,OVCAR-8,> 100 µM (inactive)
same,GI50,SR,> 100 µM (inactive)
same,GI50,HT-29,> 100 µM (inactive)
same,GI50,MCF7,> 100 µM (inactive)
O=C1CC(=O)n2cnc3cccc(c32)N1,GI50,DU-145,> 100 µM (inactive)
same,GI50,PC-3,> 100 µM (inactive)
same,GI50,SN12C,> 100 µM (inactive)
same,GI50,CAKI-1,> 100 µM (inactive)
same,GI50,NCI-H23,> 100 µM (inactive)
same,GI50,OVCAR-4,> 100 µM (inactive)
same,GI50,HOP-62,> 100 µM (inactive)
same,GI50,SNB-19,> 100 µM (inactive)
same,GI50,UACC-62,> 100 µM (inactive)
same,GI50,SF-295,> 100 µM (inactive)
same,GI50,SF-539,> 100 µM (inactive)
same,GI50,MDA-MB-231,> 100 µM (inactive)
same,GI50,786-0,> 100 µM (inactive)
same,GI50,IGROV-1,> 100 µM (inactive)
same,GI50,RPMI-8226,> 100 µM (inactive)
same,GI50,BT-549,> 100 µM (inactive)
same,GI50,U-251,> 100 µM (inactive)
same,GI50,HCT-116,> 100 µM (inactive)
same,GI50,SK-MEL-5,> 100 µM (inactive)
same,GI50,CCRF-CEM,> 100 µM (inactive)
same,GI50,A549,> 100 µM (inactive)
same,GI50,K562,> 100 µM (inactive)
same,GI50,UACC-257,> 100 µM (inactive)
same,GI50,A498,> 100 µM (inactive)
same,GI50,HOP-92,> 100 µM (inactive)
same,GI50,NCI-H460,> 100 µM (inactive)
same,GI50,OVCAR-5,> 100 µM (inactive)
same,GI50,SF-268,> 100 µM (inactive)
same,GI50,OVCAR-3,> 100 µM (inactive)
same,GI50,SK-OV-3,> 100 µM (inactive)
same,GI50,MDA-MB-435,> 100 µM (inactive)
same,GI50,T47D,> 100 µM (inactive)
same,GI50,SK-MEL-2,> 100 µM (inactive)
same,GI50,HCT-15,> 100 µM
same,GI50,Hs-578T,> 100 µM (inactive)
same,GI50,Malme-3M,> 100 µM (inactive)
same,GI50,KM12,> 100 µM (inactive)
same,GI50,RXF 393,> 100 µM (inactive)
same,GI50,HL-60,> 100 µM (inactive)
same,GI50,NCI/ADR-RES,> 100 µM (inactive)
same,GI50,SNB-75,> 100 µM (inactive)
same,GI50,UO-31,> 100 µM (inactive)
same,GI50,MDA-N,> 100 µM (inactive)
same,GI50,SW-620,> 100 µM (inactive)
same,GI50,M14,> 100 µM (inactive)
same,GI50,COLO 205,> 100 µM (inactive)
same,GI50,EKVX,> 100 µM (inactive)
same,GI50,NCI-H226,> 100 µM (inactive)
same,GI50,SK-MEL-28,> 100 µM (inactive)
same,GI50,OVCAR-8,> 100 µM (inactive)
same,GI50,SR,> 100 µM (inactive)
same,GI50,HT-29,> 100 µM (inactive)
same,GI50,MCF7,> 100 µM (inactive)
Nc1ccc(I)cn1,GI50,DU-145,> 100 µM (inactive)
same,GI50,PC-3,> 100 µM (inactive)
same,GI50,SN12C,> 100 µM (inactive)
same,GI50,CAKI-1,> 100 µM (inactive)
same,GI50,NCI-H23,> 100 µM (inactive)
same,GI50,ACHN,> 100 µM (inactive)
same,GI50,OVCAR-4,> 100 µM (inactive)
same,GI50,HOP-62,> 100 µM (inactive)
same,GI50,SNB-19,> 100 µM (inactive)
same,GI50,UACC-62,> 100 µM (inactive)
same,GI50,SF-295,> 100 µM (inactive)
same,GI50,NCI-H522,> 100 µM (inactive)
same,GI50,MDA-MB-231,> 100 µM (inactive)
same,GI50,786-0,> 100 µM (inactive)
same,GI50,IGROV-1,> 100 µM (inactive)
same,GI50,RPMI-8226,> 100 µM (inactive)
same,GI50,BT-549,> 100 µM (inactive)
same,GI50,U-251,> 100 µM (inactive)
same,GI50,HCT-116,> 100 µM (inactive)
same,GI50,SK-MEL-5,> 100 µM (inactive)
same,GI50,CCRF-CEM,> 100 µM (inactive)
same,GI50,A549,> 100 µM (inactive)
same,GI50,K562,> 100 µM (inactive)
same,GI50,A498,> 100 µM (inactive)
same,GI50,NCI-H460,> 100 µM (inactive)
same,GI50,OVCAR-5,> 100 µM (inactive)
same,GI50,SF-268,> 100 µM (inactive)
same,GI50,OVCAR-3,> 100 µM (inactive)
same,GI50,SK-OV-3,> 100 µM (inactive)
same,GI50,HCC 2998,> 100 µM (inactive)
same,GI50,MDA-MB-435,> 100 µM (inactive)
same,GI50,T47D,> 100 µM (inactive)
same,GI50,LOX IMVI,> 100 µM (inactive)
same,GI50,SK-MEL-2,> 100 µM (inactive)
same,GI50,HCT-15,> 100 µM
same,GI50,Hs-578T,> 100 µM (inactive)
same,GI50,Malme-3M,> 100 µM (inactive)
same,GI50,KM12,> 100 µM (inactive)
same,GI50,RXF 393,> 100 µM (inactive)
same,GI50,HL-60,> 100 µM (inactive)
same,GI50,NCI/ADR-RES,> 100 µM (inactive)
same,GI50,SNB-75,> 100 µM (inactive)
same,GI50,UO-31,> 100 µM (inactive)
same,GI50,MDA-N,> 100 µM (inactive)
same,GI50,SW-620,> 100 µM (inactive)
same,GI50,M14,> 100 µM (inactive)
same,GI50,COLO 205,> 100 µM (inactive)
same,GI50,MOLT-4,> 100 µM (inactive)
same,GI50,EKVX,> 100 µM (inactive)
same,GI50,NCI-H226,> 100 µM (inactive)
same,GI50,SK-MEL-28,> 100 µM (inactive)
same,GI50,OVCAR-8,> 100 µM (inactive)
same,GI50,SR,> 100 µM (inactive)
same,GI50,HT-29,> 100 µM (inactive)
same,GI50,MCF7,> 100 µM (inactive)
